Source: ChEMBL document CHEMBL5053556, “Design, Synthesis, and Biological Evaluation of a Novel Series of Teriflunomide Derivatives as Potent Human Dihydroorotate Dehydrogenase Inhibitors for Malignancy Treatment” (J Med Chem, 2021)
Values after ≈ are worked out from the molar mass of the structure shown.

Columns and labels:
[1] = biological target: T1, Dihydroorotate dehydrogenase (quinone), mitochondrial (Homo sapiens, UniProt Q02127)
Description: Inhibition of human DHODH using dihydroorotate substrate preincubated for 30 mins followed by substrate addition by DCIP based microplate reader analysis

Raji [2] = assay: Antiproliferative activity against human Raji cells assessed as cell growth inhibition incubated for 96 hrs by MTT assay; format: functional, cell-based
L02 = assay: cells; format: ADME, cell-based; conditions: Homo sapiens, L02, 96 h
Description: Cytotoxicity against human L02 cells assessed as cell growth inhibition incubated for 96 hrs by MTT assay

[3] = biological target: T1, Dihydroorotate dehydrogenase (quinone), mitochondrial; conditions: dose 100.0 nM, time 30.0 min
in vitro [4] = conditions: human, L02 cells and Raji cells
Description: Selectivity index, ratio of IC50 for human L02 cells to IC50 for human Raji cells

physchem = conditions: aqueous
Description: Aqueous solubility of compound by UPLC method

Mus musculus [5] = assay: Toxicity in NOD-SCID mouse xenografted with human Raji cells assessed as body weight loss at 1.5 mg/kg, po administered for 25 days; format: organism-based; conditions: in vivo, 600 h, time 25 day
Raji [6] = assay: animal or person; conditions: Mus musculus, po, 600 h, read-out: TGI
Description: Antitumor activity against human Raji cells xenografted in NOD-SCID mouse assessed as tumor growth inhibition at 1.5 mg/kg, po administered for 25 days

HCT-116 = assay: Antiproliferative activity against human HCT-116 cells assessed as cell growth inhibition incubated for 96 hrs by MTT assay; format: functional, cell-based; conditions: HCT-116, 96 h
A549 = assay: Antiproliferative activity against human A549 cells assessed as cell growth inhibition incubated for 96 hrs by MTT assay; format: functional, cell-based; conditions: A549, 96 h
K562 = assay: Antiproliferative activity against human K562 cells assessed as cell growth inhibition incubated for 96 hrs by MTT assay; format: functional, cell-based; conditions: K562, 96 h
A-375 = assay: Antiproliferative activity against human A-375 cells assessed as cell growth inhibition incubated for 96 hrs by MTT assay; format: functional, cell-based; conditions: A-375, 96 h
SK-MEL-28 = assay: Antiproliferative activity against human SK-MEL-28 cells assessed as cell growth inhibition incubated for 96 hrs by MTT assay; format: functional, cell-based; conditions: SK-MEL-28, 96 h
[7] = Plasma protein binding in rat at 0.1 uM incubated for 5 hrs by LC-MS analysis; format: ADME, cell-free; conditions: read-out: PPB (converted)
[8] = Plasma protein binding in rat at 1 uM incubated for 5 hrs by LC-MS analysis; format: ADME, cell-free; conditions: read-out: PPB (converted)
[9] = Plasma protein binding in rat at 10 uM incubated for 5 hrs by LC-MS analysis; format: ADME, cell-free; conditions: read-out: PPB (converted)
[10] = Microsomal stability in human liver microsomes assessed as half life at 1 uM measured upto 120 mins in presence of NADPH by LC-MS analysis; format: ADME, Microsome
[11] = Microsomal stability in rat liver microsomes assessed as half life at 1 uM measured upto 120 mins in presence of NADPH by LC-MS analysis; format: ADME, Microsome
[12] = Microsomal stability in mouse liver microsomes assessed as half life at 1 uM measured upto 120 mins in presence of NADPH by LC-MS analysis; format: ADME, Microsome
[13] = Cmax in Sprague-Dawley rat at 15 mg/kg, po measured after 48 hrs by LC-MS analysis; format: ADME, organism-based; parameters: dose 15 mg/kg, time 48 hrs, route po; conditions: in vivo
[14] = Tmax in Sprague-Dawley rat at 15 mg/kg, po measured after 48 hrs by LC-MS analysis; format: ADME, organism-based; conditions: in vivo
[15] = Half life in Sprague-Dawley rat at 5 mg/kg, iv measured after 48 hrs by LC-MS analysis; format: ADME, organism-based; conditions: in vivo
[16] = Half life in Sprague-Dawley rat at 15 mg/kg, po measured after 48 hrs by LC-MS analysis; format: ADME, organism-based; conditions: in vivo
[17] = Clearance in Sprague-Dawley rat at 5 mg/kg, iv measured after 48 hrs by LC-MS analysis; format: ADME, organism-based; conditions: Sprague-Dawley, in vivo
[18] = Clearance in Sprague-Dawley rat at 15 mg/kg, po measured after 48 hrs by LC-MS analysis; format: ADME, organism-based; conditions: in vivo
[19] = AUC(0 to t) in Sprague-Dawley rat at 5 mg/kg, iv measured after 48 hrs by LC-MS analysis; format: ADME, organism-based; parameters: time 48 hrs, dose 5 mg/kg, route iv; conditions: Sprague-Dawley, in vivo
[20] = AUC(0 to t) in Sprague-Dawley rat at 15 mg/kg, po measured after 48 hrs by LC-MS analysis; format: ADME, organism-based; parameters: dose 15 mg/kg, time 48 hrs, route po; conditions: in vivo
[21] = Oral bioavailability in Sprague-Dawley rat at 15 mg/kg measured after 48 hrs by LC-MS analysis; format: ADME, organism-based; conditions: in vivo
[22] = Acute toxicity in BALB/c mouse assessed effect on body weight at 400 mg/kg, po; format: organism-based; conditions: in vivo
[23] = Acute toxicity in BALB/c mouse assessed change in behavior at 400 mg/kg, po; format: organism-based; conditions: in vivo
[24] = Acute toxicity in BALB/c mouse assessed effect on feeding at 400 mg/kg, po; format: organism-based; conditions: in vivo
THP-1 = assay: Antiproliferative activity against human THP-1 cells assessed as cell growth inhibition incubated for 96 hrs by MTT assay; format: functional, cell-based; conditions: THP-1, 96 h
MV4-11 = assay: Antiproliferative activity against human MV4-11 cells assessed as cell growth inhibition incubated for 96 hrs by MTT assay; format: functional, cell-based; conditions: MV4-11, 96 h
HL-60 = assay: Antiproliferative activity against human HL-60 cells assessed as cell growth inhibition incubated for 96 hrs by MTT assay; format: functional, cell-based; conditions: HL-60, 96 h
HEL = assay: Antiproliferative activity against human HEL cells assessed as cell growth inhibition incubated for 96 hrs by MTT assay; format: functional, cell-based
SUD4 = assay: Antiproliferative activity against human SU-DHL-4 cells assessed as cell growth inhibition incubated for 96 hrs by MTT assay; format: functional, cell-based; conditions: SU-DHL-4, 96 h
SU-DHL-6 = assay: Antiproliferative activity against human SU-DHL-6 cells assessed as cell growth inhibition incubated for 96 hrs by MTT assay; format: functional, cell-based; conditions: SU-DHL-6, 96 h
Daudi = assay: Antiproliferative activity against human Daudi cells assessed as cell growth inhibition incubated for 96 hrs by MTT assay; format: functional, cell-based
Raji [25] = assay: Antitumor activity against human Raji cells xenografted in NOD-SCID mouse assessed as tumor growth inhibition at 40 mg/kg, po administered for 25 days; format: functional; conditions: 600 h, time 25 day, read-out: TGI
Mus musculus [26] = assay: Toxicity in NOD-SCID mouse xenografted with human Raji cells assessed as mortality at 40 mg/kg, po administered for 25 days; format: organism-based; conditions: in vivo, 600 h, time 25 day
Mus musculus [27] = assay: Toxicity in NOD-SCID mouse xenografted with human Raji cells assessed as change in ALT level at 40 mg/kg, po administered for 25 days; format: organism-based; conditions: in vivo, 600 h, time 25 day
Mus musculus [28] = assay: Toxicity in NOD-SCID mouse xenografted with human Raji cells assessed as change in AST level at 40 mg/kg, po administered for 25 days; format: organism-based; conditions: in vivo, 600 h, time 25 day
Mus musculus [29] = assay: Toxicity in NOD-SCID mouse xenografted with human Raji cells assessed as change in uric acid level at 40 mg/kg, po administered for 25 days; format: organism-based; conditions: in vivo, 600 h, time 25 day
Mus musculus [30] = assay: Toxicity in NOD-SCID mouse xenografted with human Raji cells assessed as change in UREAL at 40 mg/kg, po administered for 25 days; format: organism-based; conditions: in vivo, 600 h, time 25 day
[31] = Acute toxicity in BALB/c mouse assessed as effect on liver at 400 mg/kg, po measured on day 14 by H and E staining based assay; format: organism-based; conditions: in vivo, 336 h, time 14 day
[32] = Acute toxicity in BALB/c mouse assessed as effect on lung at 400 mg/kg, po measured on day 14 by H and E staining based assay; format: organism-based; conditions: in vivo, 336 h, time 14 day
[33] = Acute toxicity in BALB/c mouse assessed as effect on kidney at 400 mg/kg, po measured on day 14 by H and E staining based assay; format: organism-based; conditions: in vivo, 336 h, time 14 day
[34] = Acute toxicity in BALB/c mouse assessed as effect on heart at 400 mg/kg, po measured on day 14 by H and E staining based assay; format: organism-based; conditions: in vivo, 336 h, time 14 day
[35] = Acute toxicity in BALB/c mouse assessed as effect on spleen at 400 mg/kg, po measured on day 14 by H and E staining based assay; format: organism-based; conditions: in vivo, 336 h, time 14 day
in vitro [36] = conditions: human, Caco-2
Description: Apparent permeability across apical to basolateral side in human Caco-2 cells incubated for 90 mins by LC-MS analysis

in vitro [37] = conditions: human, Caco-2; remark: listed apart in the source
Description: Apparent permeability across basolateral to apical side in human Caco-2 cells incubated for 90 mins by LC-MS analysis

in vitro [38] = conditions: human, Caco-2; remark: listed apart in the source
Description: Efflux ratio of apparent permeability across basolateral to apical side over apical to basolateral side in human Caco-2 cells

T1 sequence (Q02127 whole entry): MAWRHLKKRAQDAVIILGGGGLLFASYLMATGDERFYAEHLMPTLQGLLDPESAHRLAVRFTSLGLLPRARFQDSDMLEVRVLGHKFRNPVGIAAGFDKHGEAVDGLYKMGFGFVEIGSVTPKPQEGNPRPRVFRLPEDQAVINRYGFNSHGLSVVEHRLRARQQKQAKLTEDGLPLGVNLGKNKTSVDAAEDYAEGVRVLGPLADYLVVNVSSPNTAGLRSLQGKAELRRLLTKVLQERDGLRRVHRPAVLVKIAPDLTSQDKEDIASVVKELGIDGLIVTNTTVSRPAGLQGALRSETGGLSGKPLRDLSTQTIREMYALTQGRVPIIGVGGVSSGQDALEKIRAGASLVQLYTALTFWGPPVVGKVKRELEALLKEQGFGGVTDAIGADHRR

## C/C(O)=C(\C#N)C(=O)Nc1cc(OC(C)C)c(C(=O)Nc2c(Cl)cccc2Cl)cc1F
[1]
  IC50: 13.1 nM
Raji [2]
  IC50: 450 nM
L02
  IC50: 2620 nM
[3]
  inhibition: 89.4%
In vitro [4]
  selectivity ratio: 5.8

## C/C(O)=C(\C#N)C(=O)Nc1cc(F)c(C(=O)Nc2c(F)cccc2Cl)cc1F
[3]
  inhibition: 26.4%

## C/C(O)=C(\C#N)C(=O)Nc1cc(O[C@@H](C)C(F)(F)F)c(C(=O)Nc2c(Br)cccc2Br)cc1F
[1]
  IC50: 7.3 nM
Raji [2]
  IC50: 35.1 nM
L02
  IC50: 426 nM
[3]
  inhibition: 96.9%
physchem
  solubility: 2100 µg/mL (≈ 3.45 mM)
In vitro [4]
  selectivity ratio: 13.1

## CCn1c(CO)nn(-c2cc(O[C@@H](C)C(F)(F)F)c(C(=O)Nc3c(F)cccc3Cl)cc2F)c1=O
Raji [2]
  IC50: 0.4 nM
L02
  IC50: 1.1 nM
Mus musculus [5]
  Activity: Toxic
Raji [6]
  inhibition in vivo at 1.5 mg/kg: 79%

## COc1cc(NC(=O)/C(C#N)=C(/C)O)c(F)cc1C(=O)Nc1c(F)cccc1F
[3]
  inhibition: 27.4%

## C/C(O)=C(\C#N)C(=O)Nc1cc(O[C@@H](C)C(F)(F)F)c(C(=O)Nc2c(F)cccc2Br)cc1F
[1]
  IC50: 6.8 nM
Raji [2]
  IC50: 13.9 nM
L02
  IC50: 526 nM
[3]
  inhibition: 93.1%
physchem
  solubility: 1700 µg/mL (≈ 3.1 mM)
In vitro [4]
  selectivity ratio: 37.7

## COc1cc(NC(=O)/C(C#N)=C(/C)O)c(F)cc1C(=O)Nc1c(F)cccc1Br
[1]
  IC50: 29.5 nM
[3]
  inhibition: 78.5%

## COc1ccccc1NC(=O)c1cc(F)c(NC(=O)/C(C#N)=C(/C)O)cc1OC(C)C
[3]
  inhibition: 5.3%

## C/C(O)=C(\C#N)C(=O)Nc1cc(OC(C)C)c(C(=O)Nc2ccccc2F)cc1F
[3]
  inhibition: 23%

## COc1cccc(-c2cc(F)c(Nc3ncccc3C(=O)O)c(F)c2)c1 [ASLAN-003]
HCT-116
  IC50: 5.1 µM
A549
  IC50: 900 nM
Raji [2]
  IC50: 300 nM
K562
  IC50: 2700 nM
A-375
  IC50: 700 nM
SK-MEL-28
  IC50: 1300 nM
L02
  IC50: 487 nM
[3]
  inhibition: 66.8%

## CCOc1cc(NC(=O)/C(C#N)=C(/C)O)c(F)cc1C(=O)Nc1c(F)cccc1Br
[1]
  IC50: 40 nM
[3]
  inhibition: 72.7%

## COc1cc(NC(=O)/C(C#N)=C(/C)O)c(F)cc1C(=O)Nc1c(F)cccc1Cl
[1]
  IC50: 31.1 nM
[3]
  inhibition: 67.7%

## CCOc1cc(NC(=O)/C(C#N)=C(/C)O)c(F)cc1C(=O)Nc1c(Cl)cccc1Cl
[1]
  IC50: 17.4 nM
Raji [2]
  IC50: 573 nM
L02
  IC50: 2710 nM
[3]
  inhibition: 85.8%
In vitro [4]
  selectivity ratio: 4.7

## C/C(O)=C(\C#N)C(=O)Nc1cc(O[C@@H](C)C(F)(F)F)c(C(=O)Nc2c(F)cccc2Cl)cc1F
[1]
  IC50: 6.9 nM
Raji [2]
  IC50: 13.7 nM
L02
  IC50: 511 nM
[7]
  fraction unbound at 5 h, 0.1 µM: 0.278
[8]
  fraction unbound at 5 h, 1 µM: 0.057
[9]
  fraction unbound at 5 h, 10 µM: 0.017
[10]
  half-life at 1 µM: 139 min
[11]
  half-life at 1 µM: 46.2 min
[12]
  half-life at 1 µM: 148 min
[13]
  Cmax: 1320 ng/mL
[14]
  Tmax: 12 h
[15]
  half-life: 276 min
[16]
  half-life: 522 min
[17]
  clearance: 5 mL/min/kg
[18]
  CL/F: 11.7 mL/min/kg
[19]
  AUC(0-t) at 48 h: 21500 ng·h/mL
[20]
  AUC(0-t) at 48 h: 21100 ng·h/mL
[21]
  bioavailability: 32.8%
[22]
  Activity: Non-Toxic
[23]
  Activity: Non-Toxic
[24]
  Activity: Non-Toxic
THP-1
  IC50: 20 nM
MV4-11
  IC50: 20 nM
HL-60
  IC50: 20 nM
HEL
  IC50: 20 nM
SUD4
  IC50: 20 nM
SU-DHL-6
  IC50: 20 nM
Daudi
  IC50: 20 nM
Raji [25]
  inhibition in vivo at 40 mg/kg: 73.1%
Mus musculus [26]
  Activity: Non-Toxic
Mus musculus [27]
  Activity: Non-Toxic
Mus musculus [28]
  Activity: Non-Toxic
Mus musculus [29]
  Activity: Non-Toxic
Mus musculus [30]
  Activity: Non-Toxic
[31]
  Activity: Non-Toxic
[32]
  Activity: Non-Toxic
[33]
  Activity: Non-Toxic
[34]
  Activity: Non-Toxic
[35]
  Activity: Non-Toxic
[3]
  inhibition: 93.6%
physchem
  solubility: 5200 µg/mL (≈ 10.3 mM)
In vitro [4]
  selectivity ratio: 37.2
In vitro [36]
  Papp A→B at 1.5 h: 0.29 ×10⁻⁶ cm/s
In vitro [37]
  Papp B→A at 1.5 h: 2.04 ×10⁻⁶ cm/s
In vitro [38]
  efflux ratio: 7
